Here are results for twelve molecules from ChEMBL document CHEMBL1201862, “PubChem BioAssay data set” (2004).

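The compound was tested at five concentrations on cells cultured in 96-well plates, with a 48-hour exposure period. GI50: concentration for 50% inhibition of growth.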 The source made the active and inactive calls. Rule as the data show it: active = GI50 up to about 1.1 µM and inactive = higher. A value given as a limit tells only on which side of the number the result lay.

Test systems include U-251; SF-539; SNB-19; UO-31; HCC 2998; TK-10; RXF 393; A498; CCRF-CEM; ACHN; SK-MEL-2; UACC-257; M19-MEL; SNB-75; MOLT-4; NCI-H522; OVCAR-5; Malme-3M.
What all share (assay): DTP human tumour cell line panel, 48 h

`O=C1C=CC(=O)c2cc(Sc3ccccc3)c(=O)c(Sc3ccccc3)cc21`: the GI50 in the assay with U-251 is 46.3 µM (inactive); in the assay with SF-539, > 100 µM (inactive); with SNB-19, > 100 µM (inactive); in the assay on UO-31, 37.8 µM (inactive); in the assay on HCC 2998, > 100 µM (inactive); in the assay with TK-10 it was 64.3 µM (inactive). In addition, the GI50 was 14 µM (inactive) in the assay with RXF 393; > 100 µM (inactive) with A498; 17.3 µM (inactive) in the assay with CCRF-CEM; 12.8 µM (inactive) in the assay with ACHN; > 100 µM (inactive) with SK-MEL-2; > 100 µM (inactive) with UACC-257. The GI50 was 48.5 µM (inactive) with M19-MEL, 85.3 µM (inactive) with SNB-75, 24 µM (inactive) in the assay on MOLT-4 and 12.4 µM (inactive) in the assay on NCI-H522.
Take `CCCCCC/C(CC(=O)CCC(=O)NCCc1ccccc1)=N\Nc1ccc([N+](=O)[O-])cc1[N+](=O)[O-]`: the GI50 with U-251 is 97.1 µM (inactive); in the assay with SF-539, > 100 µM (inactive); in the assay with SNB-19 it was > 100 µM (inactive); in the assay with UO-31, 61.9 µM (inactive); with HCC 2998, > 100 µM (inactive); in the assay on TK-10 it was > 100 µM (inactive). In addition, the GI50 is > 100 µM (inactive) with RXF 393; 79.8 µM (inactive) in the assay on A498; > 100 µM (inactive) in the assay on OVCAR-5; 22.1 µM (inactive) with CCRF-CEM; 97.7 µM (inactive) with ACHN; > 100 µM (inactive) in the assay on SK-MEL-2. Further, the GI50 is 74.8 µM (inactive) in the assay on UACC-257; 54.5 µM (inactive) with M19-MEL; 21.4 µM (inactive) in the assay with MOLT-4; > 100 µM (inactive) with Malme-3M; 39.9 µM (inactive) with NCI-H522.
For `Cc1cccc(N2C(=O)C(=O)C(c3nc4ccccc4s3)/C(=N/NC(=S)NN)C2=O)c1C` (stereo not drawn), the GI50 in the assay with U-251, in the assay on SF-539, in the assay on SNB-19, with UO-31, in the assay with HCC 2998 and in the assay with TK-10 was > 100 µM (inactive) in each case. Also, the GI50 in the assay with RXF 393, in the assay with A498, with OVCAR-5, in the assay with ACHN, with SK-MEL-2 and in the assay on UACC-257 was > 100 µM (inactive) each time. Moreover, the GI50 in the assay on M19-MEL was > 100 µM (inactive); in the assay with SNB-75 it was > 100 µM (inactive); in the assay with MOLT-4, 90.6 µM (inactive); with Malme-3M, > 100 µM (inactive); in the assay on NCI-H522, > 100 µM (inactive).
With `Cc1cccc(C)c1CO`, the GI50 in the assay on U-251, in the assay on SF-539, with SNB-19, in the assay with UO-31, with HCC 2998 and in the assay on RXF 393 was > 100 µM (inactive) throughout. For the same molecule, the GI50 in the assay with OVCAR-5, with CCRF-CEM, with ACHN, with SK-MEL-2, in the assay with UACC-257 and with M19-MEL was > 100 µM (inactive) in each case. The GI50 in the assay with SNB-75, with MOLT-4, in the assay with Malme-3M and in the assay on NCI-H522 was > 100 µM (inactive) throughout.
Regarding `O=[N+]([O-])c1cccc(C2ON2C2CCCCC2)c1` (stereo not drawn), the GI50 in the assay with U-251 is 3.98 µM (inactive); with SF-539, 22.5 µM (inactive); in the assay on SNB-19, 29.1 µM (inactive); in the assay with UO-31, 22.6 µM (inactive); in the assay on HCC 2998, 17.2 µM (inactive); with TK-10, 30.3 µM (inactive). The GI50 in the assay on A498 was 27.4 µM (inactive); in the assay with OVCAR-5, > 100 µM (inactive); in the assay on CCRF-CEM it was 4.88 µM (inactive); in the assay with ACHN, 17.5 µM (inactive); with SK-MEL-2, 25.5 µM (inactive); with UACC-257, 21.6 µM (inactive). Also, the GI50 was 19.6 µM (inactive) in the assay on M19-MEL; 38.5 µM (inactive) in the assay on SNB-75; 18.3 µM (inactive) with MOLT-4; 22.8 µM (inactive) with Malme-3M; 17.4 µM (inactive) with NCI-H522.
For `COC(=O)/C(C#N)=C1\CCC(C(=O)OC)N1C` (stereo not drawn), the GI50 in the assay with U-251, in the assay on SF-539, in the assay on SNB-19, with UO-31, in the assay on HCC 2998 and in the assay on TK-10 was > 100 µM (inactive) each time. In addition, the GI50 in the assay on RXF 393, with A498, in the assay on CCRF-CEM, in the assay on SK-MEL-2, in the assay on UACC-257 and in the assay with M19-MEL was > 100 µM (inactive) in each case. Besides, the GI50 in the assay with SNB-75, in the assay on MOLT-4 and in the assay on NCI-H522 was > 100 µM (inactive) in each case.
As to `COc1cc(C2C(C(=O)Nc3ccccc3)=C(C)NC(C)=C2C(=O)Nc2ccccc2)ccc1O`, the GI50 in the assay with U-251 was 48.9 µM (inactive); in the assay with SF-539, 21.6 µM (inactive); in the assay on SNB-19, 33.7 µM (inactive); in the assay on UO-31, 97.1 µM (inactive); with HCC 2998 it was 27 µM (inactive); with TK-10, > 100 µM (inactive). Also, the GI50 in the assay with RXF 393 is > 100 µM (inactive); in the assay with A498 it was > 100 µM (inactive); in the assay on OVCAR-5, > 100 µM (inactive); in the assay on ACHN, 98.9 µM (inactive); with SK-MEL-2, 28.6 µM (inactive); with UACC-257 it was 61.9 µM (inactive). For the same molecule, the GI50 with M19-MEL is 36.2 µM (inactive); in the assay on SNB-75, 13.6 µM (inactive); in the assay with MOLT-4 it was 27.4 µM (inactive); with Malme-3M it was 41.2 µM (inactive); in the assay on NCI-H522, > 10 µM (inactive).
In the case of `O=C(O)c1ccc([I+]c2ccccc2)cc1`, the GI50 in the assay with U-251, in the assay on SF-539, with SNB-19, in the assay with UO-31, with HCC 2998 and in the assay with TK-10 was > 100 µM (inactive) each time. Also, the GI50 with RXF 393, with A498, in the assay with OVCAR-5, in the assay with CCRF-CEM, in the assay with SK-MEL-2 and in the assay with UACC-257 was > 100 µM (inactive) throughout. Moreover, the GI50 in the assay with M19-MEL, with SNB-75, with MOLT-4, with Malme-3M and in the assay with NCI-H522 was > 100 µM (inactive) each time.
On to `COc1cc2ccn3c4cc(OC)c(OC)cc4cc3c2cc1OC`, for which the GI50 in the assay on U-251, in the assay with SNB-19, with UO-31, with HCC 2998, in the assay with TK-10 and with A498 was > 100 µM (inactive) throughout. The GI50 in the assay with OVCAR-5, in the assay on CCRF-CEM, in the assay on ACHN, in the assay on SK-MEL-2, with UACC-257 and in the assay with M19-MEL was > 100 µM (inactive) throughout. In addition, the GI50 is > 100 µM (inactive) in the assay on SNB-75, > 100 µM (inactive) in the assay on MOLT-4, > 100 µM (inactive) in the assay with Malme-3M and 11.3 µM (inactive) in the assay on NCI-H522.
Turning to `N#Cc1ccccc1NC(=O)C(=O)C(C(=O)c1ccncc1)C1OC(=O)c2ccccc21` (stereo not drawn), the GI50 with U-251, in the assay on SF-539, in the assay on SNB-19, in the assay on UO-31, in the assay with HCC 2998 and with TK-10 was > 100 µM (inactive) each time. In addition, the GI50 in the assay on RXF 393 was > 100 µM (inactive); in the assay with A498, > 100 µM (inactive); in the assay on OVCAR-5, > 100 µM (inactive); with CCRF-CEM it was 79.3 µM (inactive); in the assay on ACHN, > 100 µM (inactive); with UACC-257, > 100 µM (inactive). Moreover, the GI50 with M19-MEL, with SNB-75, in the assay with Malme-3M and in the assay on NCI-H522 was > 100 µM (inactive) throughout.
Consider `COC1=CC(C2c3cc4c(cc3[C@@H](Nc3ccc(F)cc3)C3COC(=O)[C@H]23)OCO4)=CC(=O)C1=O` (stereo partly drawn), for which the GI50 in the assay with U-251 is 2.78 µM (inactive); in the assay with SF-539, 4.37 µM (inactive); in the assay with SNB-19, 5.57 µM (inactive); in the assay with UO-31 it was 7.66 µM (inactive); in the assay on HCC 2998 it was 16.1 µM (inactive); with TK-10, 19.2 µM (inactive). In addition, the GI50 in the assay on RXF 393 was 50.2 µM (inactive); in the assay on A498, 2.43 µM (inactive); in the assay on OVCAR-5 it was 19.9 µM (inactive); in the assay on CCRF-CEM it was 2.49 µM (inactive); in the assay on ACHN it was 3.1 µM (inactive); in the assay on UACC-257 it was 37.6 µM (inactive). Moreover, the GI50 in the assay on M19-MEL is 15.4 µM (inactive); in the assay with SNB-75 it was 6.81 µM (inactive); in the assay on MOLT-4, 0.524 µM (active); in the assay with Malme-3M, 13.7 µM (inactive); in the assay on NCI-H522 it was 4.33 µM (inactive).
As for `CN(C)c1ccc2c(NCCCCCCNc3ccnc4cc(N(C)C)ccc34)ccnc2c1`, the GI50 was 5.32 µM (inactive) in the assay on U-251; 21.5 µM (inactive) with SF-539; 0.605 µM (active) with SNB-19; 32.3 µM (inactive) in the assay on UO-31; 15.7 µM (inactive) with HCC 2998; 12.5 µM (inactive) with TK-10. Besides, the GI50 with RXF 393 was 16 µM (inactive); with A498, 35.1 µM (inactive); in the assay with OVCAR-5, 25.2 µM (inactive); in the assay with CCRF-CEM, 12.7 µM (inactive); in the assay with ACHN it was 16.2 µM (inactive); in the assay on SK-MEL-2, 20.2 µM (inactive). Also, the GI50 in the assay on UACC-257 is 14.9 µM (inactive); with M19-MEL, 13.7 µM (inactive); in the assay with MOLT-4, 6 µM (inactive); in the assay with Malme-3M, 2.85 µM (inactive); in the assay with NCI-H522, 6.75 µM (inactive).

As a reminder, the GI50 is the concentration giving 50% growth inhibition.
